Literature values as cited in patent US20050256112A1, “Combination of atypical antipsychotics and 5HT-1B receptor antagonists” (Pfizer Inc, priority 2004, published 2005).

How the values were obtained:
[1] = tested on: white blood cell counts; settings: background statement
[2] = background statement
[3] = in some mammals; background statement

Cc1nc2n(c(=O)c1CCN1CCC(c3noc4cc(F)ccc34)CC1)CCCC2 [risperidone, 3-[2-[4-(6-fluoro-1,2-benzisoxazol-3-yl)piperidino]ethyl]-2-methyl-6,7,8,9-tetrahydro-4H-pyrido-[1,2-a]pyrimidin-4-one]
effect on white blood cell count [1]: remains unaffected
weight gain (in words) [2]: minimal

OCCOCCN1CCN(C2=Nc3ccccc3Sc3ccccc32)CC1 [Quetiapine, 5-[2-(4-dibenzo[b,f][1,4]thiazepin-11-yl-1-piperazinyl)ethyoxy]ethanol]
cataract formation [3]: cause cataract formation

Cc1cc2c(s1)Nc1ccccc1N=C2N1CCN(C)CC1 [Olanzapine, 2-methyl-4-(4-methyl-1-piperazinyl)-10H-thieno [2,3-b][1,5] benzodiazepine]
weight gain ([2]; in some cases): up to 1 pound per week
